Measured values taken from ChEMBL document CHEMBL1201862, “PubChem BioAssay data set” (2004).
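The compound was tested at five concentrations on cells cultured in 96-well plates, with a 48-hour exposure period. GI50: concentration for 50% inhibition of growth.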 Calls of active or inactive are those of the source. No stated cut-off is given here; in the data, active = GI50 up to about 1.1 µM and inactive = higher.

Columns and labels:
Assay in all cases: NCI tumour cell line growth inhibition, 48 h
KM-20L2 = system: KM-20L2
DMS-114 = system: DMS-114
HOP-18 = system: HOP-18
DLD-1 = system: DLD-1
M19-MEL = system: M19-MEL
DMS-273 = system: DMS-273
RXF 631 = system: RXF 631
LXFL 529 = system: LXFL 529
XF498 = system: XF498

Row | Structure (SMILES) | GI50 (KM-20L2) | GI50 (DMS-114) | GI50 (HOP-18) | GI50 (DLD-1) | GI50 (M19-MEL) | GI50 (DMS-273) | GI50 (RXF 631) | GI50 (LXFL 529) | GI50 (XF498)
1 | CN1CCN(Cc2nc3cccc4c3c([n+]2[O-])-c2ccccc2-4)CC1 | 36.4 µM (inactive) | 44.4 µM (inactive) | 37.2 µM (inactive) | 54.5 µM (inactive) | 34 µM (inactive) | 44.1 µM (inactive) | 60.4 µM (inactive) | 38.3 µM (inactive) | 
2 | CCOC(=O)c1c2ccc(/C=C/c3ccccn3)ccc-2c(C(=O)OCC)c1N | > 100 µM (inactive) | > 100 µM (inactive) | > 100 µM (inactive) | > 100 µM (inactive) | > 100 µM (inactive) | > 100 µM (inactive) | > 100 µM (inactive) | 72.6 µM (inactive) | 
3 | CC[P+](C)(C)c1ccccc1 | > 100 µM (inactive) | > 100 µM (inactive) | 5 µM (inactive) | > 100 µM (inactive) | > 100 µM (inactive) | > 100 µM (inactive) |  | > 100 µM (inactive) | > 100 µM (inactive)
4 | O=C(O/N=C1/CCC/C1=C\c1ccccc1)c1ccccc1 | 58.3 µM (inactive) | 35 µM (inactive) | > 100 µM (inactive) | 43.8 µM (inactive) |  | > 100 µM (inactive) |  | 28.9 µM (inactive) | 
5 | OCc1c(-c2cccc3ccccc23)sc(-c2cccc3ccccc23)c1CO | 11.7 µM (inactive) | 9.1 µM (inactive) | 13.5 µM (inactive) |  | 15.5 µM (inactive) | 15.2 µM (inactive) | 18.2 µM (inactive) | 14 µM (inactive) | 6.89 µM (inactive)
6 | NC(=S)N/N=C/C(O[C@@H](/C=N/NC(N)=S)CO)n1cnc2c(N)ncnc21 (stereo partly specified) | > 61.1 µM (inactive) | 28.4 µM (inactive) | > 48.8 µM (inactive) |  | 97.1 µM (inactive) | > 55.1 µM (inactive) | > 100 µM (inactive) | > 78.2 µM (inactive) | > 100 µM (inactive)
7 | C=C(Br)N(CC)CC | > 100 µM (inactive) | > 100 µM (inactive) | > 100 µM (inactive) | > 100 µM (inactive) | > 100 µM (inactive) | > 100 µM (inactive) | > 100 µM (inactive) | > 100 µM (inactive) | 
8 | CC(C)(Oc1ccc2c(=O)cc(-c3ccc(Cl)cc3)oc2c1)C(=O)Nc1c(Cl)cccc1Cl | > 100 µM (inactive) | > 100 µM (inactive) | > 100 µM (inactive) | > 100 µM (inactive) | > 100 µM (inactive) | > 100 µM (inactive) |  | > 100 µM (inactive) | > 100 µM (inactive)
9 | CCC12CCCN(Cc3ccccc3)C1c1c(n(C)c3ccccc13)CC2 (stereo unspecified) | 103 µM (inactive) |  |  | > 253 µM (inactive) | 170 µM (inactive) | 166 µM (inactive) |  | 167 µM (inactive) | 
10 | CN(C)C(=S)N=C(Nc1ccccc1)Nc1ccccc1 | > 100 µM (inactive) | > 100 µM (inactive) |  |  | > 100 µM (inactive) | > 100 µM (inactive) |  |  | 
11 | C/C(CC(=O)Nc1ccccc1[N+](=O)[O-])=N\NC(N)=O | > 100 µM (inactive) | > 100 µM (inactive) |  | > 100 µM (inactive) | > 100 µM (inactive) |  | > 100 µM (inactive) | > 100 µM (inactive) | > 100 µM (inactive)
12 | CCOc1ccccc1NC(=O)C(=O)CC(=O)C1=C(C)Nc2ccccc2S1 | > 100 µM (inactive) |  |  | > 100 µM (inactive) | > 100 µM (inactive) | > 100 µM (inactive) |  | > 100 µM (inactive) | > 100 µM (inactive)
13 | CC(C)OC(=O)C1=C(O)c2ccccc2S(=O)(=O)N1 | > 100 µM (inactive) |  | > 100 µM (inactive) | > 100 µM (inactive) | > 100 µM (inactive) | > 100 µM (inactive) | > 100 µM (inactive) | > 100 µM (inactive) | > 100 µM (inactive)
14 | COc1cc([C@@H]2c3cc4c(cc3[C@@H](NCc3ccccc3)C3COC(=O)[C@@H]32)OCO4)cc(OC)c1O (stereo partly specified) | 17.9 µM (inactive) | 8.41 µM (inactive) |  | 21.6 µM (inactive) | 14.1 µM (inactive) | 1.68 µM (inactive) | 3.44 µM (inactive) | 19.3 µM (inactive) | 13.2 µM (inactive)
15 | O=[N+]([O-])c1ccc(Sc2c3ccccc3nc3cc(Cl)ccc23)cc1 | > 10 µM (inactive) | > 10 µM (inactive) | > 10 µM (inactive) | > 10 µM (inactive) | > 10 µM (inactive) |  | > 10 µM (inactive) | > 10 µM (inactive) | 32.7 µM (inactive)
16 | COc1ccc(C(=O)O)c(Cc2cccc3ccccc23)c1 | > 100 µM (inactive) | > 100 µM (inactive) | > 100 µM (inactive) | > 100 µM (inactive) | > 100 µM (inactive) | > 100 µM (inactive) | > 100 µM (inactive) | > 100 µM (inactive) | 
17 | COC(=O)[C@@H]1c2cc3c(c(O)c2[C@@H](OC2OC(C)C(OC)C(C)(OC)C2OC)C[C@]1(C)O)C(=O)c1c(O)cc2c(c1C3=O)O[C@H]1O[C@]2(C)[C@H](O)[C@@H](N(C)C)[C@@H]1O (stereo partly specified) | 0.00745 µM (active) | 0.00107 µM (active) | 0.00323 µM (active) | 0.00146 µM (active) | 0.000973 µM (active) | 0.01 µM (active) |  | 0.000391 µM (active) | 0.00177 µM (active)
18 | CC1/C(=N\O)CC(c2ccccc2)N(C)C1c1ccccc1 (stereo unspecified) | > 100 µM (inactive) | > 100 µM (inactive) |  | > 100 µM (inactive) | > 100 µM (inactive) | > 100 µM (inactive) | > 100 µM (inactive) | > 100 µM (inactive) | 
19 | CC1=CC(=O)NCCN1C | > 100 µM (inactive) | > 100 µM (inactive) | > 100 µM (inactive) | > 100 µM (inactive) | > 100 µM (inactive) | > 100 µM (inactive) |  | > 100 µM (inactive) | > 100 µM (inactive)
20 | O=C(NC1C(=O)NNC1c1cccc([N+](=O)[O-])c1)c1ccccc1 (stereo unspecified) | > 100 µM (inactive) | > 100 µM (inactive) | > 100 µM (inactive) | > 100 µM (inactive) | > 100 µM (inactive) |  | > 100 µM (inactive) | > 100 µM (inactive) | > 100 µM (inactive)
21 | CC(=O)N1C/C(=C\c2ccccc2)C(=O)/C(=C/c2ccccc2)C1 | 15.6 µM (inactive) |  | 18.8 µM (inactive) | 8.71 µM (inactive) | 3.34 µM (inactive) | 4.85 µM (inactive) |  | 9.4 µM (inactive) | 23.8 µM (inactive)
22 | O=C(CC(=O)c1cccc2ccccc12)C(=O)Nc1ccc(Cl)cc1 | > 100 µM (inactive) | > 100 µM (inactive) | > 100 µM (inactive) | > 100 µM (inactive) | > 100 µM (inactive) | > 100 µM (inactive) | > 100 µM (inactive) | > 100 µM (inactive) | > 100 µM (inactive)
23 | NC(=O)c1cn(C2OC(CO)C(O)C2O)c(=O)[nH]c1=O (stereo unspecified) |  | > 100 µM (inactive) |  | > 100 µM (inactive) | > 100 µM (inactive) | > 100 µM (inactive) | > 100 µM (inactive) | > 100 µM (inactive) | 
24 | CC(=O)Oc1c2c(c(OC(C)=O)c3c1n(C(C)=O)c1ccccc1n3C(C)=O)n(C(C)=O)c1ccccc1n2C(C)=O |  | 2.59 µM (inactive) |  | 3.04 µM (inactive) | 1.95 µM (inactive) | 3.24 µM (inactive) |  | 2.74 µM (inactive) | 
25 | COc1cc(C2c3cc4c(cc3C(NCC(O)CO)C3COC(=O)[C@H]23)OCO4)cc(OC)c1OC (stereo partly specified) | 0.143 µM (active) | 0.0733 µM (active) | > 100 µM (inactive) | 0.531 µM (active) | 0.927 µM (active) | 0.292 µM (active) |  | 0.163 µM (active) | 0.372 µM (active)
26 | CO[C@H](C(=O)O[C@H]1C(=O)N2CCC3CCC1C32C)c1ccccc1 (stereo partly specified) | > 100 µM (inactive) | > 100 µM (inactive) | > 100 µM (inactive) | > 100 µM (inactive) | > 100 µM (inactive) |  |  | > 100 µM (inactive) | > 100 µM (inactive)
27 | CC/C=C\C/C=C\C/C=C\CCCCCCCC(=O)OCC(O)CO (stereo unspecified) | > 100 µM (inactive) | 44.4 µM (inactive) | 52.2 µM (inactive) | > 100 µM (inactive) |  | > 100 µM (inactive) |  | > 56.9 µM (inactive) | > 100 µM (inactive)
